{"source": "patent US11236087B2", "about": "“Highly active pyrazolo-piperidine substituted indole-2-carboxamides active against the hepatitis B virus (HBV)” (AiCuris GmbH & Co. KG, priority 2017, dated 2022)", "key": {"HepAD38 cells": {"system": "HepAD38 cells", "assay": "Cell viability assay (AlamarBlue) in HepAD38 cells", "details": "HepAD38 cells with 0.3 μg/ml tetracycline, six days incubation, AlamarBlue"}, "HBV": {"system": "HBV", "assay": "Determination of HBV DNA from the supernatants of HepAD38 cells (anti-HBV activity)", "type": "cell-based, hepatitis B virus", "details": "HBV DNA in HepAD38 supernatant, day 6, qPCR; read-out: Cell Activity (EC50)", "how_it_was_run": "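Supernatant viral DNA was measured by LightCycler qPCR, calibrated with pCH-9/3091 plasmid, 6 days after tetracycline-free HepAD38 cultures received half-log serial compound dilutions; untreated and tetracycline-treated cells served as controls; EC50 was fitted by non-linear regression.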"}, "HBV core protein": {"biological_target": "T1, HBV core protein (UniProt P03146)", "T1 construct": "fused on or other part: BODIPY-FL maleimide label on the C-terminal Cys150", "T1 sequence (P03146 whole entry, looked up, the tested form may be a part)": "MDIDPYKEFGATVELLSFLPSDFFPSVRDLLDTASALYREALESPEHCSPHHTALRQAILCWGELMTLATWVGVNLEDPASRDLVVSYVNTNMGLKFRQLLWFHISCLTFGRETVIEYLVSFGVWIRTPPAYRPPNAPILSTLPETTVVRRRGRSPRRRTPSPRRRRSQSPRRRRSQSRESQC", "assay": "Biochemical capsid assembly assay (fluorescence quenching)", "parameters": "species or system hepatitis B virus", "details": "BODIPY-FL labelled core protein, 300 μM NaCl, read 6 min after start; read-out: Assembly Activity (IC50)", "how_it_was_run": "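Assembly-induced fluorescence quenching (477/525 nm) was measured 6 min after NaCl addition ([…]), against 2.5 M and 0 M NaCl controls. The labelled C150 core dimer (truncated at 149) at 1.0-2.0 μM in HEPES pH 7.5 was tested with eight half-log compound dilutions, top 100, 31.6 or 10 μM. EC50 was obtained by non-linear fit from triplicates run three times.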"}}}
{"substance": "5-(4-chloro-5-fluoro-1H-indole-2-carbonyl)-N-[1-(methoxymethyl)cyclopropyl]-N-methyl-1H,4H,5H,6H,7H-pyrazolo[4,3-c]pyridine-3-carboxamide [Example 268]", "values": [{"measurement": "CC50", "setting": "HepAD38 cells", "value": "> 10", "unit": "µM"}, {"measurement": "EC50", "setting": "HBV", "value": "< 1", "unit": "µM"}, {"measurement": "IC50", "setting": "HBV core protein", "value": "< 5", "unit": "µM"}]}
{"substance": "5-[4-(1,1-difluoroethyl)-1H-indole-2-carbonyl]-N-[1-(methoxymethyl)cyclopropyl]-N-methyl-1H,4H,5H,6H,7H-pyrazolo[4,3-c]pyridine-3-carboxamide [Example 301]", "values": [{"measurement": "CC50", "setting": "HepAD38 cells", "value": "> 10", "unit": "µM"}, {"measurement": "EC50", "setting": "HBV", "value": "< 1", "unit": "µM"}, {"measurement": "IC50", "setting": "HBV core protein", "value": "< 5", "unit": "µM"}]}
{"substance": "N-(2,3-dihydroxypropyl)-5-(1H-indole-2-carbonyl)-N-methyl-2H,4H,5H,6H,7H-pyrazolo[4,3-c]pyridine-3-carboxamide [Example 253]", "values": [{"measurement": "CC50", "setting": "HepAD38 cells", "value": "> 10", "unit": "µM"}, {"measurement": "EC50", "setting": "HBV", "value": "1 to 25", "unit": "µM"}, {"measurement": "IC50", "setting": "HBV core protein", "value": "5 to 10", "unit": "µM"}]}
{"substance": "N-[1-(methoxymethyl)cyclopropyl]-N-methyl-5-(4-methyl-1H-indole-2-carbonyl)-1H,4H,5H,6H,7H-pyrazolo[4,3-c]pyridine-3-carboxamide [Example 260]", "values": [{"measurement": "CC50", "setting": "HepAD38 cells", "value": "> 10", "unit": "µM"}, {"measurement": "EC50", "setting": "HBV", "value": "< 1", "unit": "µM"}, {"measurement": "IC50", "setting": "HBV core protein", "value": "< 5", "unit": "µM"}]}
{"substance": "N-ethyl-5-(1H-indole-2-carbonyl)-N-(2-methoxyethyl)-1H,4H,5H,6H,7H-pyrazolo[4,3-c]pyridine-3-carboxamide [Example 294]", "values": [{"measurement": "CC50", "setting": "HepAD38 cells", "value": "> 10", "unit": "µM"}, {"measurement": "EC50", "setting": "HBV", "value": "< 1", "unit": "µM"}, {"measurement": "IC50", "setting": "HBV core protein", "value": "5 to 10", "unit": "µM"}]}
{"substance": "tert-butyl N-(2-{1-[5-(1H-indole-2-carbonyl)-2H,4H,5H,6H,7H-pyrazolo[4,3-c]pyridin-3-yl]-N-methylformamido}ethyl)carbamate [Example 281]", "values": [{"measurement": "CC50", "setting": "HepAD38 cells", "value": "> 10", "unit": "µM"}, {"measurement": "EC50", "setting": "HBV", "value": "1 to 25", "unit": "µM"}, {"measurement": "IC50", "setting": "HBV core protein", "value": "< 100", "unit": "µM"}]}
